Laboratory results from US9737078B2, “Compositions comprising a biological control agent and an insecticide” (priority 2012, dated 2017).

Columns and labels:
Myzus persicae = Myzus persicae spray test (MYZUPE), Chinese cabbage leaf-disks; assay type: in vivo
Experimental: (§1) For all examples efficiencies of the compositions comprising at least one BCA and at least one specific insecticide has been determined by the “Colby-formula”: The expected efficacy of a given combination of two compounds is calculated as follows (see Colby, S. R., “Calculating Synergistic and antagonistic Responses of Herbicide Combinations”, Weeds 15, pp. 20-22, 1967):
(§2) If • X is the efficacy expressed in % mortality of the untreated control for test compound A at a concentration of m ppm respectively m g/ha, • Y is the efficacy expressed in % mortality of the untreated control for test compound B at a concentration of n ppm respectively n g/ha, • E is the efficacy expressed in % mortality of the untreated control using the mixture of A and B at m and n ppm respectively m and n g/ha, • then is E=X+Y−(X×Y/100)
(§3) If the observed insecticidal efficacy of the combination is higher than the one calculated as “E”, then the combination of the two compounds is more than additive, i.e., there is a synergistic effect.
(§4) To produce a suitable preparation of active compound, 1 part by weight of active compound is mixed with the stated amount of solvent and emulsifier, and the concentrate is diluted with emulsifier-containing water to the desired concentration. To produce a suitable preparation of a spore suspension the spores are diluted with emulsifier-containing water to the desired concentration. Chinese cabbage (Brassica pekinensis) leaf-disks infected with all instars of the green peach aphid (Myzus persicae), are sprayed with a preparation of the active ingredient of the desired concentration.
After the specified period of time, mortality in % is determined. 100% means all aphids have been killed; 0% means none of the aphids have been killed. The mortality values determined thus are recalculated using the Colby-formula (see above).

Tetranychus urticae = Tetranychus urticae spray test, OP-resistant, French beans; assay type: in vivo
Experimental: as §1, §2, §3
as §4, with “French beans (Phaseolus vulgaris) which are heavily infested” for “Chinese cabbage (Brassica pekinensis) leaf-disks infected”, “stages” for “instars”, “two spotted spidermite (Tetranychus urticae),” for “green peach aphid (Myzus persicae),”
After the specified period of time, mortality in % is determined. 100% means all spider mites have been killed and 0% means none of the spider mites have been killed. The mortality values determined thus are recalculated using the Colby-formula (see above).

Compound | Efficacy in % after 6d (mortality) (Myzus persicae; 20 g/ha) [%] | Efficacy in % after 6d (mortality) (Tetranychus urticae; 0.8 g ai/ha, after 6 d) [%] | Efficacy in % after 2d (mortality) (Tetranychus urticae; 4 g ai/ha, after 2 d) [%] | mortality at 0.8 g/ha (Myzus persicae; Myzus persicae, 144 h, 0.8 g/ha, after 6 d, read-out: Efficacy in % after 6d (mortality)) [%] | mortality at 4 g/ha (Myzus persicae; Myzus persicae, 144 h, 4 g/ha, after 6 d, read-out: Efficacy in % after 6d (mortality)) [%] | mortality at 20 g/ha (Tetranychus urticae; Tetranychus urticae, 48 h, 20 g ai/ha, after 2 d, read-out: Efficacy in % after 2d (mortality)) [%] | mortality at 0.8 g/ha (Tetranychus urticae; Tetranychus urticae, 144 h, 0.8 g ai/ha, after 6 d, read-out: Efficacy in % after 6d (mortality)) [%]
Cc1cc(C)c(C2=C(OC(=O)CC(C)(C)C)C3(CCCC3)OC2=O)c(C)c1 [Spiromesifen (1222), Spiromesifen] | 70 | 0 | 0 |  |  |  | 
CCOC(=O)OC1=C(c2cc(C)ccc2C)C(=O)N[C@]12CC[C@@H](OC)CC2 [Spirotetramate (1223), Spirotetramat] |  |  |  | 0 | 70 | 0 | 0
